The test system of data set [1] is LoVo cells. In words: Inhibition of the proliferation of tumor cells (MTT test), LoVo. It is filed as cell-based, human. The note with it: Homo sapiens, Table 2, colonic carcinoma, no uridine, read-out: MTT Test IC50. The protocol: (§1) Inhibition of the proliferation of tumor cells (MTT test)
(§2) 1×10^4 cells per well are inoculated into a 96-well microtiter plate. After 24 h, the test substances are added at various concentrations. Each group consists of 4 wells, the control is only incubated with medium. After 65 h, 50 μl of MTT (3-(4,5-dimethyl-2-thiazolyl)-2,5-diphenyl-2H-tetrazolium bromide; 2.5 mg/ml in PBS) are added and, after 7 h, the supernatant is removed. The color formed by the living cells is dissolved by addition of 100 μl of dimethyl sulfoxide/well. The extinction is measured at 492 nm for each well with the aid of a Multiscan photometer 340 CC (Flow). The cell lines used are obtainable as follows from the American Type Culture Collection: HUV-EC-C is ATCC CRL 1730; A-172 is ATCC CRL 1620; L 1210 is ATCC CCL 219; LoVo is ATCC CCL 229; C 6 is ATCC CCL 107 and a rat glioblastoma cell line.
(§3) The mean value is formed from the 4 wells of a group and the IC50 values are calculated from the dose-response curve using the Software 3.0 (Erithacus Software Ltd.).

The test system of data set [2] is LoVo cells. Kind of data set: MTT test on LoVo cells with added uridine. It is filed as cell-based, human. The note with it: for pIC50: Homo sapiens, LoVo, Table 3. The procedure: as §2, §3
The procedure is as in Example 6; uridine is additionally added to the batches.
Background: Tetrazolium assays rely on reduction of a dye to a coloured formazan, in cell work by metabolically active cells.

The test system of data set [3] is HUV-EC-C. Kind of data set: Inhibition of proliferation (MTT test), HUV-EC-C / HUVEC endothelial cells. The note with it: Homo sapiens, Endothelial cell, Table 2; HUV-EC-C, endothelial cell; read-out: MTT Test IC50. It is filed as cell-based, human. The protocol:
as §1, §2, §3

The subject of data set [4] is L1210. Kind of data set: Inhibition of the proliferation of tumor cells (MTT test), L1210. It is filed as cell-based. The note with it: Table 2; L1210, leukemia (mouse). The protocol: as §1, §2, §3
Data set [5] deals with A-172. Kind of data set: Inhibition of the proliferation of tumor cells (MTT test), A-172. It is filed as cell-based, human. The note with it: Homo sapiens, A 172, Table 2; A-172, glioblastoma; read-out: MTT Test IC50. The procedure: as §1, §2, §3
For data set [6], the system named is in vitro cell lines. The note with it: Peters et al., 1987; cited from earlier work.
Data set [7] relates to pyrimidine and purine nucleotides. The note with it: cited from earlier work.
Data set [8] deals with C 6. In words: Inhibition of the proliferation of tumor cells (MTT test), C 6. It is filed as cell-based, rat. The settings on record: Rattus norvegicus, C6, Table 2; C 6, rat glioblastoma; read-out: MTT Test IC50. The procedure: as §1, §2, §3
The subject of data set [9] is plasma uridine. The note with it: clinical investigations, cited from earlier work.

pIC50: −log10 of the molar value.

Regarding `Cc1c(-c2ccc(-c3ccccc3F)cc2)nc2ccc(F)cc2c1C(=O)O` [Brequinar, reference compound], the pIC50 (as a rule, the negative decadic logarithm of the IC50, by convention in mol/L) in data set [1] was 6.41; in data set [2] (uridine 0 μM), 6.41; in [2] (uridine 1000 μM), 3.89; in data set [3], 5.03; in data set [4], 6.00; in [5], 6.70. The pIC50 in [8] is 5.05. Moreover, the “change of the IC50 value on the LoVo cell line on addition of increasing amounts of uridine” value in [2] (MTT test, in words) was “massive increase in the IC50 value”. In addition, the “inhibition of growth of in vitro cell lines, reversal by nucleosides” value in [6] is “can be abolished by addition of uridine or cytidine, but not by deoxythymidine or deoxycytidine”. Also, the depletion of nucleotides result in data set [7] (Schwartsmann et al., 1988) was “depletion of pyrimidine ribo- and deoxyribonukleotides, but not of purine nucleotides”. For the same compound, in data set [7] (relative to UTP and CTP, uridine addition), the “depletion of dTTP and dCTP” value was “proportional to that of UTP and CTP and can be prevented by the addition of uridine”. Besides, the plasma uridine values result in data set [9] (Peters et al., 1988) was “significantly lowers the plasma uridine values”. Further, the “correlation of in vivo uridine level effects with bone marrow and gastrointestinal tract toxicity” value in data set [9] was “correlated with the bone marrow and gastrointestinal tract toxicity”.

These data come from patent publication US5886033A, “Use of isoxazole and crotonamide derivatives for the treatment of carcinomatous disorders” (Hoechst Aktiengesellschaft, priority 1995, dated 1999).
